Here are results for one compound from PMC6689897, “Drugging an undruggable pocket on KRAS” (Proceedings of the National Academy of Sciences of the …, 2019).

The assay deals with 4 BRAF(v600E) cell lines (A375, RKO, Colo 201, SK-MEL-28). Put plainly: pERK modulation in BRAF V600E control cell lines. The class given is cell-based, human. As to the method: 217 The coordinates and structure factors of the structures have been deposited at the
218 Protein Data Bank with the accession codes PDB Code 6GJ5, 6GJ6, 6GJ7, 6GJ8.
221 Measurements of various protein–protein interactions were performed using the Alpha
222 Screen technology developed by Perkin Elmer. Recombinant RAS proteins (H-, N-, K-
223 RAS variants; all KRAS variants are based on KRAS isoform 4B (uniprot id P01116-2);
224 KRAS (G12D) 1-169, N-terminal 6His-tag, C-terminal avi-tag was from Xtal
225 BioStructures, Inc., KRAS (G12C) 1-169, C-terminal avi-tag, biotinylated, mutations:
226 C51S, C80L, C118S, NRAS(wt) 1-172, C-terminal avi-tag, biotinylated; HRAS(wt) 1-
227 166, C-terminal avi-tag, biotinylated). Biotinylation was performed in vitro with
228 recombinant BirA biotin-protein ligase as recommended by the manufacturer (Avidity […]
231 PI3KA- RBD (160-317, N-term-HIS_GST-tag) were expressed as glutathione S […]
245 for 60 min in the dark at room temperature. Single oxygen induced fluorescence was
246 measured at an Enspire multimode plate reader (Perkin Elmer) according to the
247 manufacturer’s recommendations. Data were analyzed using the GraphPad Prism data […]
313 added according to manufacturer’s instructions. Fluorescence intensity was determined
314 using a fluorescence reader (2030 VICTOR X5, Perkin Elmer). […]
319 MAPK pathway signaling (pERK, pAKT quantification) […]

For `Cn1cnc(Cn2ccc3ccc(CNCc4[nH]c5ccccc5c4[C@H]4NC(=O)c5ccc(O)cc54)cc32)c1` [Compound 1], the “inhibition of pERK” value is “no inhibition of pERK”.
